# Laboratory results as given in patent US7595300B2, “7-quinolyl ketolide antibacterial agents” (priority 2005, dated 2009).
# Tests used:
# P. acnes = assay: MIC, NCCLS Reference Agar Dilution Method for anaerobic bacteria; assay type: cell-based, Propionibacterium acnes
# Procedure: (§1) Minimum inhibitory concentrations (“MICs”) were determined by the NCCLS Reference Agar Dilution Method (M11-A5, Vol. 21, No. 2) for anaerobic bacteria. A panel of 84 antibiotic-susceptible and resistant strains of Propionibacteria from distinct geographic locations were selected. Following revival from frozen stocks, each strain was purity plated onto Wilkins Chalgren Agar, pH 7.2 (Oxoid, UK), and the appropriate antibiotic resistance/susceptibility phenotype was confirmed by antibiotic disc testing. Each strain was subjected to an agar dilution MIC assay. […] The inocula for each batch of strains were prepared from 7-day old Wilkins Chalgren Agar plate cultures by resuspension of colonies in Wilkins Chalgren Anaerobe broth, pH 7.2 (Oxoid, UK) to an optical density (OD600) of 0.2±0.02. The inoculum (1.0-2.0 μL) for each strain was applied to a Wilkins Chalgren Agar MIC plate in a grid pattern using a Multipoint Inoculator (Denley, UK). All agar plates were incubated at 37° C. for 3 days under anaerobic conditions in AnaeroPack 7 liter rectangular jars (Mitsubishi Gas Chemical Company, Inc., Japan).
# [1] = Skin penetration of topical formulations, Franz static diffusion cells; assay type: in vitro ADME, human; settings: first experiment, dibutyl sebacate
# Procedure: The penetration of compound (III) formulated in various vehicles into human skin was determined. Franz static diffusion cells (15 mm diameter orifice, o-ring joint) were mounted on 9-cell manifolds and maintained at a constant temperature by use of re-circulating water baths set at 32° C. These cells have an opening with a nominal area of 1.77 cm^2 and a receptor compartment with a volume ranging between 12 to 14 ml. Each diffusion cell was assembled by placing a disk shaped section of excised human skin (obtained from elective surgery) over the orifice of the receptor (bottom) compartment. A Teflon® O-ring was placed on top of the skin before the donor cap was added (top compartment). This diffusion area was then secured in place by a pinch clamp, ensuring an adequate seal between the donor and receptor compartments. The joint between the donor and receptor compartments of each cell was wrapped with Parafilm® (American Can Company) to prevent evaporation of the receptor phase. Each cell was then filled with the receptor phase consisting of phosphate buffered saline with 0.1% sodium azide and 4% bovine serum albumin (w/w/w) at 32° C. Any air bubbles present under the tissue were removed prior to dosing. […]
# Approximately 10 mg/cm^2 of each formulation was dosed onto the tissue surfaces of five cells. […] Samples were analyzed for drug content by LC/MS-MS. […]
# [2] = Pharmacokinetics in the mouse, plasma and lung tissue; assay type: in vivo; settings: oral gavage 10 mg/kg
# Procedure: The pharmacokinetics of compounds of formula (VIII) and compounds of formula (II) and (III) were measured in the mouse. Compounds were administered either intravenously (i.v.) at 1 mg/kg, or per oral gavage (p.o.) at 10 mg/kg. Plasma samples were taken and analyzed by LC/MS-MS. For lung tissue pharmacokinetics, lungs were removed and homogenized, followed by analyzis by LC/MS-MS.
# P. granulosum = assay: MIC, NCCLS Reference Agar Dilution Method for anaerobic bacteria; assay type: cell-based, Propionibacterium granulosum
# Procedure: as §1
# human hepG2 hepatocytes = assay: In vitro hepatotoxicity, resazurin and Nile Red staining; assay type: cell-based; settings: 100 μM
# Procedure: In one experiment, hepatotoxicity was estimated by overnight incubation of compounds at 3, 10, 30, 100, or 300 μM with cultured rat or human hepG2 hepatocytes, followed by staining of the cells with resazurin to measure viability or with Nile Red to measure steatosis. The minimal drug concentration at which changes in dye binding were observed was noted as the minimal effective concentration. The compound of formula (VIII) wherein Z=3-quinolyl affected […] and steatosis in human HepG2 hepatocytes at 30 μM.
# [3] = marker RNA 2058, phenotype EryR
# [4] = marker RNA 2059, phenotype EryR
compound,measurement,setting,value
"CC1CC(N(C)C)C(O)C(O[C@@H]2[C@@H](C)C(=O)[C@](C)(F)C(=O)O[C@H](CCF)[C@@]3(C)OC(=O)N[C@@H]3[C@@H](C)C(=O)[C@H](C)C[C@@]2(C)OC/C=C/c2ccc3cccnc3c2)O1 (some centres unmarked) [Compound (III), 6-O-(1-(7-quinolyl)-3-propenyl)-11-amino-11-deoxy-3-(descladinosyl)-3-oxo-2,15-difluoroerythromycin A-11,12-cyclic carbamate]",MIC range,"P. acnes; marker RNA 1058, phenotype TetR",0.06 to 1 mg/L
same,MIC range,"P. acnes; marker RNA 1058/2058, phenotype TetR, EryR",1 to 2 mg/L
same,MIC range,"P. acnes; marker RNA 1058/2059, phenotype TetR, EryR",0.5 mg/L
same,MIC range,"P. acnes; marker RNA 2057, phenotype EryR",0.06 mg/L
same,MIC range,P. acnes; [3],0.125 to 2 mg/L
same,MIC range,"P. acnes; marker RNA 2058, phenotype EryR, TetR",0.06 to 1 mg/L
same,MIC range,P. acnes; [4],0.125 to 2 mg/L
same,MIC range,"P. acnes; marker ermX, phenotype EryR",32 to 128 mg/L
same,MIC range,"P. acnes; marker none, phenotype none",0.06 mg/L
same,MIC range,"P. acnes; marker unknown, phenotype ClindR",0.06 mg/L
same,Highest dermal penetration,[1],5.7 % of applied dose
same,Lung AUC,[2]; mouse lung tissue,45.9 ug/mL-h
same,Lung Cmax,[2]; mouse lung tissue,8.7 µg/mL
same,AUC,[2]; mouse plasma,16.2 µg·h/mL
same,Cmax,[2]; mouse plasma,3 µg/mL
same,MIC range,P. granulosum; [3],8 mg/L
same,MIC range,P. granulosum; [4],0.125 to 2 mg/L
same,MIC range,"P. granulosum; marker ermX, phenotype EryR",4 to 32 mg/L
same,MIC range,"P. granulosum; marker none, phenotype none",0.06 mg/L
same,effects on metabolic stability and steatosis,human hepG2 hepatocytes,No effects
